PubChem BioAssay (NCI)
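Following 48 hours of exposure in 96-well plates, responses at five concentrations were used to interpolate endpoints linearly. GI50 is the concentration that inhibits growth by half. TGI denotes the concentration required for complete inhibition of growth.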

Columns and labels:
Experiment in all cases: DTP human tumour cell line panel, 48 h
HCT-15 colon = tested on: HCT-15 colon
OVCAR-3 ovarian = tested on: OVCAR-3 ovarian
OVCAR-4 ovarian = tested on: OVCAR-4 ovarian
SK-MEL-2 melanoma = tested on: SK-MEL-2 melanoma
LOX IMVI melanoma = tested on: LOX IMVI melanoma
TK-10 renal = tested on: TK-10 renal
HL-60(TB) leukemia = tested on: HL-60(TB) leukemia
NCI-H23 lung = tested on: NCI-H23 lung
MOLT-4 leukemia = tested on: MOLT-4 leukemia
HOP-92 NSCLC = tested on: HOP-92 NSCLC
SF-539 CNS = tested on: SF-539 CNS

SMILES | TGI (HCT-15 colon) | TGI (OVCAR-3 ovarian) | TGI (OVCAR-4 ovarian) | TGI (SK-MEL-2 melanoma) | TGI (LOX IMVI melanoma) | TGI (TK-10 renal) | TGI (HL-60(TB) leukemia) | TGI (NCI-H23 lung) | TGI (MOLT-4 leukemia) | TGI (HOP-92 NSCLC) | TGI (SF-539 CNS) | GI50 (HL-60(TB) leukemia)
CC1(O)/C(=N/O)CC2CC1C2(C)C (stereo not given) | > 100 µM | > 100 µM | > 100 µM | > 100 µM | > 100 µM | > 100 µM | > 100 µM | > 100 µM | > 100 µM | > 100 µM |  | 
Cc1sc2nc3n(c(=O)c2c1C)N=C(c1ccc(Cl)cc1)CS3 | > 100 µM | > 100 µM | > 100 µM |  | > 100 µM |  | > 100 µM | > 100 µM | > 100 µM | > 100 µM | > 100 µM | 
O=[N+]([O-])C(=C(N1CCOCC1)N1CCOCC1)/C(Cl)=C(\Cl)[N+](=O)[O-] | 8.18 µM | 13.5 µM | 30.7 µM | 32.2 µM | 5.19 µM | 3.89 µM |  | 9.29 µM | > 100 µM |  | 23.8 µM | 
C=C[C@H]1CN2CCc3c([nH]c4c([C@H]5CCCN5C)c(O)ccc34)[C@@H]2C[C@@H]1C[C@H]1c2[nH]c3ccccc3c2CCN1C | 2.3 µM | 3 µM | 3.27 µM | 3.53 µM | 2.4 µM | 3.36 µM | 0.564 µM | 3.56 µM | 5.32 µM | 2.82 µM |  | 0.0562 µM
CCOC(=O)CC[C@@H](NC(=O)c1ccc(N[C@@H]2c3cc4c(cc3C(c3cc(OC)c(O)c(OC)c3)C3C(=O)OC[C@@H]32)OCO4)cc1)C(=O)OCC (stereo not given in full) | 0.233 µM | 0.37 µM |  | 0.235 µM |  | 0.375 µM | 0.05 µM | 0.0424 µM | > 10 µM | 0.0808 µM | 0.0478 µM | 
COC(=N)C12C(N)=NC(OC)(OC)C1(C#N)C21C(=O)N(c2ccccc2)N=C1C (stereo not given) | > 100 µM | > 100 µM | > 100 µM | > 100 µM |  |  | > 100 µM | > 100 µM | > 100 µM | > 100 µM | > 100 µM | 
COC(=O)CC1C(=O)OCc2c1cc1n(c2=O)Cc2c-1nc1ccccc1c2OC (stereo not given) | > 100 µM |  | > 100 µM | > 100 µM | > 100 µM | > 100 µM | > 100 µM | 97.9 µM | 32.3 µM | > 100 µM |  | 
CC(C)(C)N1NC1C1NN1C(C)(C)C (stereo not given) | > 100 µM | > 100 µM | > 100 µM | > 100 µM | > 100 µM | > 100 µM |  | > 100 µM | > 100 µM | > 100 µM | > 100 µM | 
CC1N(C)C(=O)OC12CCN(CCCC(=O)c1ccc(F)cc1)CC2 (stereo not given) | > 100 µM | > 100 µM |  | > 100 µM | > 100 µM | > 100 µM | > 100 µM | > 100 µM | > 100 µM |  | > 100 µM | 
COC(=O)c1c(C(=O)OC)c2cc(C(=O)c3ccccc3)ccn2c1Cl | > 100 µM | 63.1 µM | > 100 µM | > 100 µM | > 100 µM | > 100 µM | 54.2 µM | 88.1 µM | 51.5 µM |  | > 100 µM | 
